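Results reflect a 48-hour exposure of cells in 96-well plates to compound at five concentrations. Abbreviation: GI50, concentration required for 50% inhibition of growth.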 Activity calls are given as the source filed them. Rule as the data show it: active = GI50 up to about 1.1 µM and inactive = higher.
How the values were obtained:
Assay in all cases: inhibition of tumour cell growth, NCI panel, 48 h
786-0 = test system: 786-0
A498 = test system: A498
A549 = test system: A549
ACHN = test system: ACHN
CAKI-1 = test system: CAKI-1
CCRF-CEM = test system: CCRF-CEM
COLO 205 = test system: COLO 205
DLD-1 = test system: DLD-1
DMS-114 = test system: DMS-114
DMS-273 = test system: DMS-273
HCC 2998 = test system: HCC 2998
HCT-116 = test system: HCT-116
HCT-15 = test system: HCT-15
HL-60 = test system: HL-60
HOP-62 = test system: HOP-62
HOP-92 = test system: HOP-92
HT-29 = test system: HT-29
IGROV-1 = test system: IGROV-1
K562 = test system: K562
KM-20L2 = test system: KM-20L2
KM12 = test system: KM12
LOX IMVI = test system: LOX IMVI
LXFL 529 = test system: LXFL 529
M14 = test system: M14
M19-MEL = test system: M19-MEL
MOLT-4 = test system: MOLT-4
Malme-3M = test system: Malme-3M
NCI-H226 = test system: NCI-H226
NCI-H23 = test system: NCI-H23
NCI-H460 = test system: NCI-H460
NCI-H522 = test system: NCI-H522
OVCAR-3 = test system: OVCAR-3
OVCAR-4 = test system: OVCAR-4
OVCAR-5 = test system: OVCAR-5
RPMI-8226 = test system: RPMI-8226
RXF 393 = test system: RXF 393
SF-268 = test system: SF-268
SF-295 = test system: SF-295
SF-539 = test system: SF-539
SK-MEL-28 = test system: SK-MEL-28
SK-MEL-2 = test system: SK-MEL-2
SK-MEL-5 = test system: SK-MEL-5
SK-OV-3 = test system: SK-OV-3
SN12C = test system: SN12C
SNB-19 = test system: SNB-19
SNB-75 = test system: SNB-75
SNB-78 = test system: SNB-78
SW-620 = test system: SW-620
TK-10 = test system: TK-10
U-251 = test system: U-251
UACC-257 = test system: UACC-257
UACC-62 = test system: UACC-62
UO-31 = test system: UO-31
EKVX = test system: EKVX
OVCAR-8 = test system: OVCAR-8
XF498 = test system: XF498
SR = test system: SR

Compound: O=C(CC1=Nc2nnc(-c3nnc4n3C(=O)C(CC(=O)C3CC3)=N4)n2C1=O)C1CC1
- GI50 (786-0): > 100 µM (inactive)
- GI50 (A498): > 100 µM (inactive)
- GI50 (A549): > 100 µM (inactive)
- GI50 (ACHN): > 100 µM (inactive)
- GI50 (CAKI-1): > 100 µM (inactive)
- GI50 (CCRF-CEM): > 100 µM (inactive)
- GI50 (COLO 205): > 100 µM (inactive)
- GI50 (DLD-1): > 100 µM (inactive)
- GI50 (DMS-114): > 100 µM (inactive)
- GI50 (DMS-273): > 100 µM (inactive)
- GI50 (HCC 2998): > 100 µM (inactive)
- GI50 (HCT-116): > 100 µM (inactive)
- GI50 (HCT-15): > 100 µM
- GI50 (HL-60): > 100 µM (inactive)
- GI50 (HOP-62): > 100 µM (inactive)
- GI50 (HOP-92): > 100 µM (inactive)
- GI50 (HT-29): > 100 µM (inactive)
- GI50 (IGROV-1): > 100 µM (inactive)
- GI50 (K562): > 100 µM (inactive)
- GI50 (KM-20L2): > 100 µM (inactive)
- GI50 (KM12): > 100 µM (inactive)
- GI50 (LOX IMVI): > 100 µM (inactive)
- GI50 (LXFL 529): > 100 µM (inactive)
- GI50 (M14): > 100 µM (inactive)
- GI50 (M19-MEL): > 100 µM (inactive)
- GI50 (MOLT-4): > 100 µM (inactive)
- GI50 (Malme-3M): > 100 µM (inactive)
- GI50 (NCI-H226): > 100 µM (inactive)
- GI50 (NCI-H23): > 100 µM (inactive)
- GI50 (NCI-H460): > 100 µM (inactive)
- GI50 (NCI-H522): > 100 µM (inactive)
- GI50 (OVCAR-3): > 100 µM (inactive)
- GI50 (OVCAR-4): > 100 µM (inactive)
- GI50 (OVCAR-5): > 100 µM (inactive)
- GI50 (RPMI-8226): > 100 µM (inactive)
- GI50 (RXF 393): > 100 µM (inactive)
- GI50 (SF-268): > 100 µM (inactive)
- GI50 (SF-295): > 100 µM (inactive)
- GI50 (SF-539): > 100 µM (inactive)
- GI50 (SK-MEL-28): > 100 µM (inactive)
- GI50 (SK-MEL-2): > 100 µM (inactive)
- GI50 (SK-MEL-5): > 100 µM (inactive)
- GI50 (SK-OV-3): > 100 µM (inactive)
- GI50 (SN12C): > 100 µM (inactive)
- GI50 (SNB-19): > 100 µM (inactive)
- GI50 (SNB-75): > 100 µM (inactive)
- GI50 (SNB-78): > 100 µM (inactive)
- GI50 (SW-620): > 100 µM (inactive)
- GI50 (TK-10): > 100 µM (inactive)
- GI50 (U-251): > 100 µM (inactive)
- GI50 (UACC-257): > 100 µM (inactive)
- GI50 (UACC-62): > 100 µM (inactive)
- GI50 (UO-31): > 100 µM (inactive)

Compound: O=[PH](O)c1ccccn1
- GI50 (786-0): > 100 µM (inactive)
- GI50 (A498): > 100 µM (inactive)
- GI50 (A549): > 100 µM (inactive)
- GI50 (ACHN): > 100 µM (inactive)
- GI50 (CAKI-1): > 100 µM (inactive)
- GI50 (CCRF-CEM): > 100 µM (inactive)
- GI50 (COLO 205): > 100 µM (inactive)
- GI50 (DLD-1): > 100 µM (inactive)
- GI50 (DMS-114): > 100 µM (inactive)
- GI50 (DMS-273): > 100 µM (inactive)
- GI50 (EKVX): > 100 µM (inactive)
- GI50 (HCC 2998): > 100 µM (inactive)
- GI50 (HCT-116): > 100 µM (inactive)
- GI50 (HCT-15): > 100 µM
- GI50 (HL-60): > 100 µM (inactive)
- GI50 (HOP-62): > 100 µM (inactive)
- GI50 (HOP-92): > 100 µM (inactive)
- GI50 (HT-29): > 100 µM (inactive)
- GI50 (IGROV-1): > 100 µM (inactive)
- GI50 (K562): > 100 µM (inactive)
- GI50 (KM-20L2): > 100 µM (inactive)
- GI50 (KM12): > 100 µM (inactive)
- GI50 (LOX IMVI): > 100 µM (inactive)
- GI50 (LXFL 529): > 100 µM (inactive)
- GI50 (M14): > 100 µM (inactive)
- GI50 (M19-MEL): > 100 µM (inactive)
- GI50 (MOLT-4): > 100 µM (inactive)
- GI50 (Malme-3M): > 100 µM (inactive)
- GI50 (NCI-H226): > 100 µM (inactive)
- GI50 (NCI-H23): > 100 µM (inactive)
- GI50 (NCI-H460): > 100 µM (inactive)
- GI50 (NCI-H522): > 100 µM (inactive)
- GI50 (OVCAR-3): > 100 µM (inactive)
- GI50 (OVCAR-4): > 100 µM (inactive)
- GI50 (OVCAR-5): > 100 µM (inactive)
- GI50 (OVCAR-8): > 100 µM (inactive)
- GI50 (RPMI-8226): > 100 µM (inactive)
- GI50 (RXF 393): > 100 µM (inactive)
- GI50 (SF-268): > 100 µM (inactive)
- GI50 (SF-295): > 100 µM (inactive)
- GI50 (SF-539): > 100 µM (inactive)
- GI50 (SK-MEL-28): > 100 µM (inactive)
- GI50 (SK-MEL-5): > 100 µM (inactive)
- GI50 (SK-OV-3): > 100 µM (inactive)
- GI50 (SN12C): > 100 µM (inactive)
- GI50 (SNB-19): > 100 µM (inactive)
- GI50 (SNB-75): > 100 µM (inactive)
- GI50 (SNB-78): > 100 µM (inactive)
- GI50 (SW-620): > 100 µM (inactive)
- GI50 (TK-10): > 100 µM (inactive)
- GI50 (U-251): > 100 µM (inactive)
- GI50 (UACC-257): > 100 µM (inactive)
- GI50 (UACC-62): > 100 µM (inactive)
- GI50 (UO-31): > 100 µM (inactive)
- GI50 (XF498): > 100 µM (inactive)

Compound: CCCOP1(=O)C=C(O)C(Cl)=C(C)C1 (stereo not given)
- GI50 (786-0): > 100 µM (inactive)
- GI50 (A549): > 100 µM (inactive)
- GI50 (ACHN): > 100 µM (inactive)
- GI50 (CCRF-CEM): > 100 µM (inactive)
- GI50 (COLO 205): > 100 µM (inactive)
- GI50 (DLD-1): > 100 µM (inactive)
- GI50 (DMS-273): > 100 µM (inactive)
- GI50 (EKVX): > 100 µM (inactive)
- GI50 (HCC 2998): > 100 µM (inactive)
- GI50 (HCT-116): > 100 µM (inactive)
- GI50 (HCT-15): > 100 µM
- GI50 (HL-60): > 100 µM (inactive)
- GI50 (HOP-62): > 100 µM (inactive)
- GI50 (HOP-92): > 100 µM (inactive)
- GI50 (HT-29): > 100 µM (inactive)
- GI50 (IGROV-1): > 100 µM (inactive)
- GI50 (K562): > 100 µM (inactive)
- GI50 (KM-20L2): > 100 µM (inactive)
- GI50 (KM12): 41.2 µM (inactive)
- GI50 (LOX IMVI): > 100 µM (inactive)
- GI50 (LXFL 529): > 100 µM (inactive)
- GI50 (M14): > 100 µM (inactive)
- GI50 (M19-MEL): > 100 µM (inactive)
- GI50 (MOLT-4): > 100 µM (inactive)
- GI50 (Malme-3M): > 100 µM (inactive)
- GI50 (NCI-H226): > 100 µM (inactive)
- GI50 (NCI-H23): > 100 µM (inactive)
- GI50 (NCI-H460): > 100 µM (inactive)
- GI50 (NCI-H522): > 100 µM (inactive)
- GI50 (OVCAR-3): > 100 µM (inactive)
- GI50 (OVCAR-4): > 100 µM (inactive)
- GI50 (OVCAR-8): > 100 µM (inactive)
- GI50 (RXF 393): > 100 µM (inactive)
- GI50 (SF-268): > 100 µM (inactive)
- GI50 (SF-295): > 100 µM (inactive)
- GI50 (SF-539): > 100 µM (inactive)
- GI50 (SK-MEL-28): > 100 µM (inactive)
- GI50 (SK-MEL-2): 40.6 µM (inactive)
- GI50 (SK-MEL-5): > 100 µM (inactive)
- GI50 (SK-OV-3): > 100 µM (inactive)
- GI50 (SN12C): > 100 µM (inactive)
- GI50 (SNB-19): > 100 µM (inactive)
- GI50 (SNB-75): > 100 µM (inactive)
- GI50 (SNB-78): > 100 µM (inactive)
- GI50 (SR): > 100 µM (inactive)
- GI50 (SW-620): > 100 µM (inactive)
- GI50 (TK-10): > 100 µM (inactive)
- GI50 (U-251): > 100 µM (inactive)
- GI50 (UACC-257): > 100 µM (inactive)
- GI50 (UACC-62): > 100 µM (inactive)
- GI50 (UO-31): > 100 µM (inactive)
- GI50 (XF498): > 100 µM (inactive)

Source: ChEMBL document CHEMBL1201862, “PubChem BioAssay data set” (2004)
